For series [1], the system named is Pseudomonas aeruginosa No. 12. Put plainly: MIC by agar dilution method. The series is classed as cell-based. As to conditions: read-out: minimum inhibitory concentration (MIC).
For series [2], the system named is Pseudomonas aeruginosa Tsuchijima. Put plainly: MIC by agar dilution method. The series is classed as cell-based. As to conditions: read-out: minimum inhibitory concentration (MIC).
The test system of series [3] is Staphylococcus aureus No. 50774. The series can be described thus: MIC by agar dilution method. The series is classed as cell-based. As to conditions: Gram-positive bacteria, read-out: minimum inhibitory concentration (MIC).
Series [4] can be described thus: Acute oral toxicity in mice. Particulars: mouse, in vivo, male ddY mice, deaths counted after 7 days, Behrens-Kaerber method, read-out: median lethal dose (LD50). As for the experimental part: A suspension containing each of compound 1 of the invention and compound A in various concentrations was orally given to male mice (ddY) at a volume of 0.1 ml per 10 g of body weight.

Series [5] has as its system Pseudomonas aeruginosa No. 12. Put plainly: In vivo therapeutic efficacy against systemic infections in mice. Particulars: po, twice, about 5 minutes and 6 hours after intraperitoneal infection, male ddY mice, read-out: median effective dose (ED50). An excerpt: (§1) Compound 1 of this invention obtained by the procedure described in Example 1 and compounds A and B were each suspended in a 0.2% aqueous solution of sodium carboxymethylcellulose. Each of the solutions was orally administered to mice infected with each of the test organisms under the conditions described below, and the median effective doses (ED50; mg/kg) obtained are shown in Table II. Male mice (ddY) weighing about 20 g (4) Pseudomonas aeruginosa No. 12: Intraperitoneal infection with about 4×10^3 cells per mouse suspended in trypto-soy broth with 4% mucin. […] Exp. Path. Pharm., 162, 480 (1931)].

Series [6] deals with Escherichia coli P-5101. Described as above. As to conditions: P5101, 168 h, po, twice, about 5 minutes and 6 hours after intraperitoneal infection, male ddY mice, observed 7 days, read-out: median effective dose (ED50).
Text: as §1, with “(3) Escherichia coli P-5101:” for “(4) Pseudomonas aeruginosa No. 12:”, “9×10^6” for “4×10^3”

The subject of series [7] is Staphylococcus aureus No. 50774. Described as above. Particulars: NO.50774, 336 h, po, twice, about 5 minutes and 6 hours after intravenous infection, male ddY mice, observed 14 days, read-out: median effective dose (ED50). The source says: Compound 1 of this invention obtained by the procedure described in Example 1 and compounds A and B were each suspended in a 0.2% aqueous solution of sodium carboxymethylcellulose. Each of the solutions was orally administered to mice infected with each of the test organisms under the conditions described below, and the median effective doses (ED50; mg/kg) obtained are shown in Table II. Male mice (ddY) weighing about 20 g (1) Staphylococcus aureus No. 50774: Intravenous infection with about 5×10^8 cells per mouse suspended in saline. […] Exp. Path. Pharm., 162, 480 (1931)].

Series [8] has as its system Enterobacter cloacae P-2540. Put plainly: MIC by agar dilution method. Particulars: P2540, read-out: minimum inhibitory concentration (MIC). The series is classed as cell-based.
For series [9], the system named is Streptococcus faecalis P-2473. Put plainly: MIC by agar dilution method. The format is cell-based. As to conditions: Enterococcus faecalis, P2473, read-out: minimum inhibitory concentration (MIC).
In series [10] the test system is Corynebacterium pyogenes C-21. Put plainly: MIC by agar dilution method. The series is classed as cell-based. As to conditions: Trueperella pyogenes, C21, read-out: minimum inhibitory concentration (MIC).
The subject of series [11] is Serratia marcescens IFO 3736. The series can be described thus: MIC by agar dilution method. The format is cell-based. As to conditions: IFO3736, read-out: minimum inhibitory concentration (MIC). As for the experimental part: (§2) The minimum inhibitory concentrations (MIC: μg/ml) of the following compounds were measured by the agar dilution method according to the procedure described in Chemotherapy, Vol. 22, No. 16, page 1126 (1974).

The subject of the next series is Shigella flexneri 2a. Put plainly: MIC by agar dilution method. The series is classed as cell-based. Particulars: read-out: minimum inhibitory concentration (MIC). As for the experimental part:
as §2

Series [12] has as its system Klebsiella pneumoniae No. 13. The series can be described thus: MIC by agar dilution method. The format is cell-based. Particulars: read-out: minimum inhibitory concentration (MIC). As for the experimental part:
as §2

Series [13] relates to Shigella flexneri 4a P-330. The series can be described thus: MIC by agar dilution method. As to conditions: 4AP330, read-out: minimum inhibitory concentration (MIC). The series is classed as cell-based. As for the experimental part: as §2
The next series relates to Proteus morganii Kono. The series can be described thus: MIC by agar dilution method. The format is cell-based. As to conditions: Morganella morganii, read-out: minimum inhibitory concentration (MIC). As for the experimental part: as §2
The test system of a further series is Proteus mirabilis P-2381. Put plainly: MIC by agar dilution method. The format is cell-based. Particulars: P2381, read-out: minimum inhibitory concentration (MIC). As for the experimental part: as §2
The test system of series [14] is Staphylococcus aureus 209P JC-1. Put plainly: MIC by agar dilution method. The format is cell-based. Particulars: Gram-positive bacteria, read-out: minimum inhibitory concentration (MIC). As for the experimental part:
as §2

Series [15] relates to Escherichia coli NIHJ JC-2. The series can be described thus: MIC by agar dilution method. The series is classed as cell-based. As to conditions: NIHJJC2, read-out: minimum inhibitory concentration (MIC).
Series [16] deals with Salmonella enteritidis No. 1891. The series can be described thus: MIC by agar dilution method. The series is classed as cell-based. Particulars: Salmonella enterica, read-out: minimum inhibitory concentration (MIC).
For another series, the system named is Escherichia coli P-140a. Put plainly: MIC by agar dilution method. The format is cell-based. Particulars: P140A, read-out: minimum inhibitory concentration (MIC).
Series [17] has as its system Salmonella typhimurium S-9. The series can be described thus: MIC by agar dilution method. The format is cell-based. As to conditions: Salmonella enterica, read-out: minimum inhibitory concentration (MIC).
For series [18], the system named is Streptococcus pyogenes A65. Put plainly: MIC by agar dilution method. The series is classed as cell-based. As to conditions: read-out: minimum inhibitory concentration (MIC).
For series [19], the system named is Streptococcus pyogenes A65. Put plainly: In vivo therapeutic efficacy against systemic infections in mice. As to conditions: po, twice, about 5 minutes and 6 hours after intraperitoneal infection, male ddY mice, read-out: median effective dose (ED50). An excerpt: Compound 1 of this invention obtained by the procedure described in Example 1 and compounds A and B were each suspended in a 0.2% aqueous solution of sodium carboxymethylcellulose. Each of the solutions was orally administered to mice infected with each of the test organisms under the conditions described below, and the median effective doses (ED50; mg/kg) obtained are shown in Table II. Male mice (ddY) weighing about 20 g (2) Streptococcus pyogenes […] Intraperitoneal infection with about 3×10^7 cells per mouse suspended in brain-heart infusion broth. […] Exp. Path. Pharm., 162, 480 (1931)].

Series [20] relates to Escherichia coli P-5101. Put plainly: MIC by agar dilution method. The format is cell-based. Particulars: P5101, read-out: minimum inhibitory concentration (MIC).

Values after ≈ are worked out from the molar mass of the structure shown.

Regarding `CN1CCN(c2nc3c(cc2F)c(=O)c(C(=O)O)cn3CCF)CC1` [Compound 1, 6-Fluoro-1-(2-fluoroethyl)-1,4-dihydro-7-(4-methyl-1-piperazinyl)-4-oxo-1,8-naphthyridine-3-carboxylic acid], the MIC in series [1] came out at 1.56 µg/mL (≈ 4.43 µM); in series [2], 3.13 µg/mL (≈ 8.88 µM); in series [3], 0.39 µg/mL (≈ 1.11 µM); in [8], 0.2 µg/mL (≈ 0.568 µM); in series [9] it was 12.5 µg/mL (≈ 35.5 µM); in series [10] it was 6.25 µg/mL (≈ 17.7 µM). Besides, the MIC in series [11] came out at 1.56 µg/mL (≈ 4.43 µM); in the series on Shigella flexneri 2a, 0.39 µg/mL (≈ 1.11 µM); in series [12] it was 0.39 µg/mL (≈ 1.11 µM); in series [13] it was 0.1 µg/mL (≈ 0.284 µM); in the series on Proteus morganii Kono it was 0.39 µg/mL (≈ 1.11 µM); in the series with Proteus mirabilis P-2381 it was 0.78 µg/mL (≈ 2.21 µM). For the same molecule, the MIC in [14] was found to be 0.78 µg/mL (≈ 2.21 µM); in [15], 0.2 µg/mL (≈ 0.568 µM); in series [16], 0.1 µg/mL (≈ 0.284 µM); in the series with Escherichia coli P-140a, 0.1 µg/mL (≈ 0.284 µM); in series [17], 0.2 µg/mL (≈ 0.568 µM); in series [18] it was 12.5 µg/mL (≈ 35.5 µM). The MIC in the series with Escherichia coli P-5101 [20] was determined as 0.1 µg/mL (≈ 0.284 µM). For the same molecule, in series [4], the LD50 at 168 h is over 1800 mg/kg. Further, the ED50 in series [5] amounted to 4.2 mg/kg; in the series with Escherichia coli P-5101 [6], 0.52 mg/kg; in series [7], 1.4 mg/kg; in series [19] it was 14.9 mg/kg.

With `CCn1cc(C(=O)O)c(=O)c2cc(F)c(N3CCN(C)CC3)nc21` [Compound A, 1-Ethyl-6-fluoro-1,4-dihydro-7-(4-methyl-1-piperazinyl)-4-oxo-1,8-naphthyridine-3-carboxylic acid], the MIC stood at 6.25 µg/mL (≈ 18.7 µM) in series [10]; 1.56 µg/mL (≈ 4.67 µM) in series [11]; 0.39 µg/mL (≈ 1.17 µM) with Shigella flexneri 2a; 0.78 µg/mL (≈ 2.33 µM) in series [13]; 0.78 µg/mL (≈ 2.33 µM) with Proteus morganii Kono; 3.13 µg/mL (≈ 9.36 µM) in the series with Proteus mirabilis P-2381. Also, the MIC in series [15] was 0.39 µg/mL (≈ 1.17 µM); in series [16] it was 0.1 µg/mL (≈ 0.299 µM); in the series with Escherichia coli P-140a, 0.39 µg/mL (≈ 1.17 µM); in series [18] it was 6.25 µg/mL (≈ 18.7 µM). For the same molecule, in series [19], the ED50 was over 50 mg/kg.

For `O=C(O)c1cn(CCF)c2nc(N3CCNCC3)c(F)cc2c1=O` [Compound B, 6-Fluoro-1-(2-fluoroethyl)-1,4-dihydro-4-oxo-7-(1-piperazinyl)-1,8-naphthyridine-3-carboxylic acid], the MIC in series [1] came to 0.78 µg/mL (≈ 2.31 µM); in series [2], 0.78 µg/mL (≈ 2.31 µM); in [3], 1.56 µg/mL (≈ 4.61 µM); in series [8], 0.1 µg/mL (≈ 0.296 µM); in series [9] it was 12.5 µg/mL (≈ 36.9 µM); in [10] it was 1.56 µg/mL (≈ 4.61 µM). Also, the MIC in [11] amounted to 0.39 µg/mL (≈ 1.15 µM); in the series on Shigella flexneri 2a, 0.2 µg/mL (≈ 0.591 µM); in series [12], 0.78 µg/mL (≈ 2.31 µM); in [13], 0.1 µg/mL (≈ 0.296 µM); with Proteus morganii Kono it was 0.2 µg/mL (≈ 0.591 µM); in the series with Proteus mirabilis P-2381 it was 0.39 µg/mL (≈ 1.15 µM). Also, the MIC is 0.39 µg/mL (≈ 1.15 µM) in [14]; 0.2 µg/mL (≈ 0.591 µM) in series [15]; 0.1 µg/mL (≈ 0.296 µM) in series [16]; 0.1 µg/mL (≈ 0.296 µM) with Escherichia coli P-140a; 0.1 µg/mL (≈ 0.296 µM) in [17]; 12.5 µg/mL (≈ 36.9 µM) in series [18]. Also, the MIC in the series with Escherichia coli P-5101 [20] is 0.1 µg/mL (≈ 0.296 µM). Besides, the ED50 in [5] is 27.2 mg/kg; with Escherichia coli P-5101 [6] it was 3 mg/kg; in series [7], 11.5 mg/kg; in [19] it was 50 mg/kg.

Source of the values: US4496566A, “Naphthyridine derivatives” (Dainippon Pharmaceutical Co., Ltd., priority 1980, dated 1985).
